Source: patent US20180105492A1, “COMPOUNDS DERIVED FROM 3-ALKYLAMINE-1H-INDOLYL ACRYLATE AND THEIR USE IN THE TREATMENT OF NEURODEGENERATIVE DISEASES” (FUNDACION PARA LA INVESTIGACION BIOMEDICA DEL HOSPITAL …, priority 2014, published 2018)

Tests used:
Assay type in all cases: cell-based
[1] = system: Nrf2 transcription factor (Nrf2-ARE); experiment: Nrf2-ARE induction, luciferase activity in AREc32 (MCF7 cells stably transfected with ARE-LUC); conditions: Homo sapiens, 24 h, basal = 1, read-out: Relative Luciferase activity (response versus basal)
Description: For the study of Nrf2 transcription factor, the cellular line AREC32 was used, which is characterized for being stably transfected with the reporter gene of Luciferase linked to the ARE sequence. In the presence electrophilic compounds or oxidative stress, Nrf2 factor binds to ARE sequences, activating luciferase expression and producing a proportional quantity of luciferase. The AREc32 cells were cultured in DMEM media with glutamax, supplemented with 10% fetal bovine serum (FBS), 1% penicillin-streptomycin and 1.6% geneticine (G418) (obtained from GIBCO, Madrid, Spain). Cells were cultured in 75 cm flasks with 11 mL of specific media, incubated at 37° C. and 5% of CO2. Cells were passed every 4-6 days (1:4), whenever the confluence reached 80%. For the experiments, cells were cultured in transparent surface 96 well plates at a density of […] with 100 μL/well. After 24 h in culture, cells were treated with the compounds at different concentrations (1, 10, 30 and 60 μM) during 24 h at 37° C. and 5% CO2. In every experiment it was also included a basal variable, a variable with 10 μM tert-butyl hydroquinone (TBHQ) (positive control) and the variables of the study in a final volume of 100 μL. After an incubation of 24 h with the compounds, luciferase activity was measured by bioluminescence using the commercial kit “Luciferase assay system” (Promega E1500). For that, treatments were removed and cells were washed with 100 μL of PBS 0.1 M. After washing, 20 μL of “lysis buffer” reactive was added to each well. 10 minutes later, luminescence was measured using the multi-well reader FluoStar optima (BMG labtech).
Luminescence was measured in arbitrary units and is directly proportional to luciferase quantity in the wells, which is also directly proportional to Nrf2 transcription factor induction by the specific compound at the established concentration. Measurements were made in duplicate and values were normalized to the basal luminescence value, considered as 1.
The results of Nrf2 induction obtained for the compounds 1 to 16 are shown in Table 1 and are expressed as induction, considering 1 the non-treated cells.

SH-SY5Y cells [2] = experiment: Neuroprotection against rotenone/oligomycin A, pre-incubation model, MTT; conditions: Homo sapiens, compound 1 μM pre-incubation 24 h, then Rot/Olig (30/10 μM); for viability at 1 µM: read-out: % Survival
Description: (§1) SH-SY5Y cells [ECACC 94030304], in 5 to 16 passage after defreezing were maintained in Eagle media modified by Dulbecco (DMEM) containing 15 non-essential amino acids and supplemented with 10% fetal bovine serum, 1 mM glutamine, 50 units/mL penicillin/streptomycin (obtained from GIBCO, Madrid, Spain). Cells were seeded in flasks containing supplemented media and were maintained in an incubator at 37° C. and 5% CO2. 1:4 passes were performed twice per week. For the experiments, cells were seeded in 24 well-plates at a density of 2×10^5 cells/well, or in 96 well-plates at a density of 8×10^4 cells/well. For cytotoxicity experiments, cells were treated with the compounds before confluence with DMEM media supplemented with fetal bovine serum 1%.
(§2) In order to assess cellular viability, we measured the metabolic reduction of 3-(4,5-Dimethylthiazol-2-yl)-2,5 diphenyltetrazolium bromide (MTT). MTT is an indirect assay to measure cellular viability. It is a colorimetric method based on the reduction of 3-(4,5-Dimethylthiazol-2-yl)-2,5 diphenyltetrazolium. This process is performed by the mitochondrial enzyme succinate-dehydrogenase present in metabolic active cells. Thus, the water-soluble yellow MTT (tetrazolium salt) is transformed into a insoluble purple compound (formazan). Quantity of living cells is directly proportional to the quantity of formazan (Mosmann, 1983, J Immunol Methods, 65: 55-63). […] Therefore, with this assay we can measure cellular surviving and proliferation and also, we can determine the cytotoxicity of potential neuroprotective compounds. In order to assess cellular viability in SH-SY5Y cell line, we added 30 μl/well of MTT (5 mg/mL) and after 2 h, medium was carefully removed to avoid losing the formazan and was diluted in 300 μL of DMSO. Afterwards, samples were transferred to a 96 well-plate and the absorbance was measured at 570 nm using a absorbance/fluorescence reader FluoStar optima®. Every MTT assay was performed in triplicates. Absorbance values obtained with the toxic alone were subtracted to the absorbance values obtained in basal conditions (without treatment). That result was considered as the 100% of cell death and the values obtained with the compounds in the presence of the toxic stimulus were normalized as percentages of that value. For determining the surviving percentage, those percentages of cell death were subtracted to 100.
(§3) Neuroprotection elicited by the compounds of the invention 1-16: The activation of Nrf2-ARE pathway by different compounds exerts neuroprotective effects against toxic models based on oxidative stress via the expression of cytoprotective genes. […] We evaluated the neuroprotective potential of the compounds using the human neuroblastoma cell line using the following cytotoxicity models: 1) oxidative stress induced by rotenone+oligomycin, both blockers of the electron transport chain as previously described (Halliwell, 1992, J Neurochem, 59: 1609-23, Newhouse y col., 2004, Toxicol Sci, 79: 137-46), and 2) cytotoxicity induced by the electrophilic compound Menadione. This compound produces oxidative stress after being metabolized by microsomal enzymes in the cell which produces hydroxyl radical and oxygen reactive species. As a consequence, there is a depolarization of mitochondrial membrane generating a release of apoptotic factors such as cytochrome c, and activating the caspase cascade (Loor y col., 2010, Free Radic Biol Med, 49: 1925-36, Chuang y col., 2002, Cancer Res, 62: 6246-54). Caspase 3 activation can produce the lysis of proteins and induce DNA fragmentation, leading to cell death (Gerasimenko y col., 2002, J Cell Sci, 115: 485-97).
For this study we propose a protocol in which the cells are pre-incubated with each of the derivatives at 1 μM for 24 h. After the pre-incubation period, the medium was removed and replaced by culture medium with the rotenone/oligomycin-A (30 μM and 10 μM, respectively) toxic mixture. […]

SH-SY5Y cells [3] = experiment: Neuroprotection against oxidative stress induced by menadione, pre- and co-incubation, MTT; conditions: Homo sapiens, 24 h, compound 1 μM pre- and co-incubation, Menadione (8 mM); for viability at 1 µM: read-out: % Survival
Description: as §1, §2, §3
To further confirm the neuroprotective capacity in another model of oxidative stress, menadione was selected as toxic stimulus. […]

SH-SY5Y cells [4] = experiment: Neuroprotection against rotenone/oligomycin A, pre- and co-incubation model, MTT; conditions: Homo sapiens, compound 1 μM pre-incubation 24 h and co-incubation 24 h with Rot/Olig (30/10 μM); for inhibition at 1 µM: read-out: % Protection; for viability at 1 µM: read-out: % Survival
Description: as §1, §2, §3
In this model, a 24 h pre-incubation period was performed in presence of the compounds synthesized at a concentration of 1 μM. Thereafter, a 24 h co-incubation period was added, in presence of the compounds with rotenone/oligomycin A (30 μM/10 μM) mixture. After 24 h, cell viability was assessed by the MTT reduction method. […]

Row | Structure (SMILES) | fold induction at 10 µM [1] | fold induction at 30 µM [1] | fold induction at 60 µM [1] | percent protection against toxin-induced cell death at 1 µM (SH-SY5Y cells [2]) [%] | viability at 1 µM (SH-SY5Y cells [2]) [%] | % protection against menadione toxicity at 1 µM (SH-SY5Y cells [3]) [%] | viability at 1 µM (SH-SY5Y cells [3]) [%] | inhibition at 1 µM (SH-SY5Y cells [4]) [%] | viability at 1 µM (SH-SY5Y cells [4]) [%]
1 | CC(=O)NCCc1c[nH]c2ccc(OC(=O)/C=C/c3ccc(Cl)cc3)cc12 [Compound 11, 3-(2-acetamidoethyl)-1H-indol-5-yl (E)-3-(4-chlorophenyl)acrylate] | 1.18 ± 0.1 | 1.59 ± 0.2 | 3.55 ± 0.9 | 33.5 | 73.2 ± 3.12 | 57 | 85.7 ± 2.93 | 28.4 | 70.2 ± 3.7
2 | CC(=O)NCCc1c[nH]c2ccc(OC(=O)/C=C/c3ccc(Cl)c(Cl)c3)cc12 [Compound 12, 3-(2-acetamidoethyl)-1H-indol-5-yl (E)-3-(3,4-dichlorophenyl)acrylate] | 1.16 ± 0.1 | 1.43 ± 0.1 | 2.12 ± 0.2 | 25.3 | 70.1 ± 4.35 | 59.3 | 86.5 ± 3.04 | 27.8 | 69.9 ± 3.47
3 | CC(=O)NCCc1c[nH]c2ccc(OC(=O)/C=C/c3ccccc3C(F)(F)F)cc12 [Compound 13, 3-(2-acetamidoethyl)-1H-indol-5-yl (E)-3-(2-(trifluoromethyl)phenyl)acrylate] | 1.38 ± 0.1 | 1.79 ± 0.1 | 2.55 ± 0.2 | 22.1 | 67 ± 3.01 | 36.2 | 74.9 ± 2.19 | 50.2 | 73.8 ± 4.55
4 | CC(=O)NCCc1c[nH]c2ccc(OC(=O)/C=C/c3cccc(C(F)(F)F)c3)cc12 [Compound 14, 3-(2-acetamidoethyl)-1H-indol-5-yl (E)-3-(3-(trifluoromethyl)phenyl)acrylate] | 1.34 ± 0.2 | 1.64 ± 0.2 | 2.13 ± 0.2 | 34.9 | 72.5 ± 2.92 | 44.8 | 78.5 ± 3.03 | 45.9 | 72.6 ± 3.75
5 | CC(=O)NCCc1c[nH]c2ccc(OC(=O)/C=C/c3ccc(C(F)(F)F)cc3)cc12 [Compound 15, 3-(2-acetamidoethyl)-1H-indol-5-yl (E)-3-(4-(trifluoromethyl)phenyl)acrylate] | 2.34 ± 0.2 | 4.99 ± 0.5 | 28.9 ± 2.9 | 37.5 | 73.4 ± 3.31 | 31.6 | 73.2 ± 3.43 | 47.6 | 73 ± 2.99
6 | CC(=O)NCCc1c[nH]c2ccc(OC(=O)/C=C/c3ccc([N+](=O)[O-])cc3)cc12 [Compound 16, 3-(2-acetamidoethyl)-1H-indol-5-yl (E)-3-(4-nitrophenyl)acrylate] | 1.69 ± 0.1 | 2.41 ± 0.1 | 3.19 ± 0.1 | 23 | 68.5 ± 2.88 | 53.6 | 84.3 ± 2.15 | 29.5 | 76.5 ± 2.18
